Values quoted from earlier work as cited in patent publication US20220095646A1, “METHODS FOR THE PRODUCTION AND USE OF MYCELIATED AMINO ACID-SUPPLEMENTED FOOD COMPOSITIONS” (MycoTechnology, Inc., priority 2019, published 2022).

N[C@@H](CC(=O)O)C(=O)O [Aspartic acid]
Taste thresholds (Kato et al. 1989), sour: 0.03 mg/mL
Taste thresholds (Kato et al. 1989), umami: 1 mg/mL

N[C@@H](CCC(=O)O)C(=O)O [Glutamic acid]
Taste thresholds (Kato et al. 1989), sour: 0.05 mg/mL
Taste thresholds (Kato et al. 1989), umami: 0.3 mg/mL

CC[C@H](C)[C@H](N)C(=O)O [Isoleucine]
Taste thresholds (Kato et al. 1989), bitter: 0.9 (bitter) mg/mL

NCCCC[C@H](N)C(=O)O [Lysine]
Taste thresholds (Kato et al. 1989), sweet and bitter (sweet and bitter): 0.5 (sweet and bitter) mg/mL

C[C@@H](O)[C@H](N)C(=O)O [Threonine]
Taste thresholds (Kato et al. 1989), sweet (sweet): 2.6 (sweet) mg/mL

CC(C)[C@H](N)C(=O)O [Valine]
Taste thresholds (Kato et al. 1989), bitter: 0.4 (bitter) mg/mL
